Experimental data from US8455214B2, “Methods for determining chemotherapeutic agents targeting alpha-glucan pathways and uses thereof” (priority 2009, dated 2013).

Tested on: Mtb ΔRv3032 mutant
Format: cell-based

`OCC1=C[C@@H](N[C@H]2C[C@H](CO)[C@@H](O[C@H]3O[C@@H](CO)[C@H](O)[C@@H](O)[C@@H]3O)[C@H](O)[C@H]2O)[C@H](O)[C@@H](O)[C@@H]1O` [VA, Validamycin A] was tested, and the “killing (reduction of viability, CFU)” value (over 7 days, cultures inoculated at 5×10^6 CFU/ml) was 3 log and the “effect of over-expression of the putative target TreS” value (ΔRv3032 mutant with TreS from an integrative single-copy plasmid) was “marked resistance”.
